According to patent US20140294849A1, “COMPOSITIONS AND USES” (GLAXOSMITHKLINE BIOLOGICALS SA, priority 2011, published 2014):
Read-outs that look alike come from different tables or passages of the source. No end group written: not given here.

Experiments:
[1] = tested on: human microglial cell line CHME; assay: Phagocytosis of beta-amyloid 1-42 peptide by CHME cells; type: cell-based; conditions: Example 18
Procedure: Phagocytosis of beta-amyloid 1-42 peptide by the human microglial cell line CHME was observed after the addition of TLR2 agonist containing adjuvants Protollin and Pam3CysLip peptide. […] The synthetic peptide sequence of the Pam3Cys Lip peptide is described herein: Pam3Cys—SQ EPAAPAAEAT PAAEAP. Protollin was used at concentration 1 ug per ml based on the LPS content from Shigella flexneri. Pam3Cys lip peptide was used at concentration of 5 ug per ml of the pure tri-palmitoylated peptide.
Additionally, cells were imaged using 42 HiLyte 488 Fluo (Anaspec, Inc.) at 2 ug per ml in DMEM complete media (Invitrogen). Lysotracker red staining was performed and slides were mounted and co-stained with DAPI to show the nucleus (blue). […] Lysotracker red reagent was purchased from Invitrogen and used as manufacturer recommendations.

[2] = tested on: CD11b+ peripheral blood monocytes; assay: Ex vivo uptake assay of Aβ1-42; type: cell-based, C57BL/6 mice; conditions: Example 19, FIG. 20; QS21 5 μg i.m.
Procedure: Preparation of cells: Peripheral blood was drawn from C57BL/6 mice via cardiac puncture with lithium-heparin as anticoagulant, 24-hours after injection of the adjuvants used herein. Red blood cell lysis was performed twice on pooled blood with Ammonium Chloride-based Buffer (Sigma, Steinheim, Germany) and cells were counted with the EasyCount™ System (Immunicon). […]
FACS analysis: cells were harvested after incubation with fluorescent Aβ peptide with Trypsin/EDTA and cold PBS and washed three times. 500,000 cells were incubated in 96-well plate for 10 min. on ice in the presence of Rat anti-Mouse CD16/CD32 (clone 2.4G2—BD Fc Block™) and further stained for 30 min. with a combination of the following directly conjugated antibodies at their pre-determined optimal concentration: PE-Hamster anti-Mouse CD3 (clone 145-2C11), Rat anti-Mouse CD45R/B220 (clone RA3-6B2), Rat anti-Mouse Ly-6G (clone 1A8), Mouse anti-Mouse NK1.1 (clone PK136), APC-conjugated Rat anti-Mouse CD11b (clone M1/70), PE-Cy7-conjugated Hamster anti-Mouse CD11c (clone HL3), (all from BD PharMingen). […]
Samples were acquired on a flow cytometer (BD FACSCanto II) and data analyzed with the FACSDiva software (BD Biosciences). […]

[3] = tested on: Lineage-CD11b+ monocytes in peripheral blood; assay: Monocyte analysis and counting after adjuvant injection in mice; type: in vivo, C57BL/6 mice
Procedure: (§1) 24-Hours after injection of the TLR adjuvants, peripheral blood was drawn from C57BL/6 mice via cardiac puncture with lithium-heparin as anticoagulant. Red blood cell lysis was performed twice on pooled blood with Ammonium Chloride-based Buffer (Sigma, Steinheim, Germany) and cells were counted with the EasyCount™ System (Immunicon). […] Cells were finally washed three times and fixed for 15 min. with a 2% paraformaldehyde solution in PBS. Fluorescence minus one (FMO) controls were always included in the assays for fluorescent compensation setting. Samples were acquired on a flow cytometer (BD FACSCanto II) and data analyzed with the FACSDiva software (BD Biosciences). Monocytes were identified by their Side/Forward scatter properties and gated as CD3-/CD45R/B220-/Ly-6G-/NK1.1-(Lineage-)/CD11b+ cells. CD11b+ monocyte frequency was reported as a percentage of the total cells excluding debris.
as §1, with “24 hours” for “24-Hours”, “each immunomodulator,” for “the TLR adjuvants,”, “min” for “min.”, “monocytes” for “monocyte”
Cells were finally washed twice and fixed for 15 min. with a 2% paraformaldehyde solution in PBS. FMOs controls were always included in the assays. Samples were acquired on a flow cytometer (BD FACSCanto II) and data analyzed with the FACSDiva software (BD Biosciences). Monocytes were identified and counted by their Side/Forward scatter properties, excluding debris and gated as CD3-/CD45R/B220-/Ly-6G-/NK1.1-(Lineage-)/CD11 b+ cells.

[4] = tested on: cytokines and chemokines in sera; type: in vivo, C57BL/6 mice; conditions: for levels of TNF-α and IL-6: i.p.
Procedure: Mice (n=5) received 50 μl of adjuvant formulations by i.m. injection for the PBS, AS03, AS01B and AS04D. PBS or LPS or MPL were injected using the intraperitoneal route and sera were collected at 2 and 6 h time points. Whole blood was collected by cardiac puncture from mice and centrifuged on a vacutainer blood collection tube containing gel for serum separation. Serum samples were cleared by centrifugation and stored at −80° C. until analysis. Protein levels in the cleared sera samples were measured by cytokine-specific beads (Millipore, USA) using the Luminex™ platform.
To determine whether the low inflammatory response observed in the previous in vitro experiments can be reproduced in vivo, we measured several cytokines and chemokines in the sera of C57BL/6 mice 2 and 6 h following a single intraperitoneal injection of either MPL or LPS. […] Noteworthy, IL-1β is not increased in response to MPL in contrast to LPS treatment.

[5] = tested on: spatial learning and memory; assay: T-water maze in APP/PS1 mice; type: in vivo, APPSwe/PS1 mice; conditions: for behaviour as assessed by T water maze testing: Example 21, twelve weekly injections, vs non treated mice; for cognitive functions, T-water maze: Example 22, vs PBS
Procedure: Five groups of APPSwe/PS1 mice received one a week for a period of 12 weeks the following treatment: • Gr1: APPSwe/PS1+NaCl 0.9% n(=20), i.p. injections • Gr4: APPSwe/PS1+CRX527 (20 μg/mouse, 130 μl, n=10), i.p. injections • Gr5: […] (50 μg/mouse, 130 μl, n=10), i.p. injections • Gr8 APPSwe/PS1+AS15 ( 1/10th of human dose, 50 μl, n=10), i.m. injections • Gr9: APPSwe/PS1+AS01B ( 1/10th of human dose, 50 μl, n=10), i.m. injections
Mice were tested during the “light on” phase of the day. Behavioral experimenter was blinded to the genetic and treatment status of animals. To assess hippocampal-dependent spatial learning and memory, mice were trained in the T-water maze task. In this paradigm, we evaluate the mouse's ability to remember the spatial location of submerged platform. The T-maze apparatus (length of stem, 64 cm; length of arms, 30 cm; width, 12 cm; height of walls, 16 cm) was made of clear fiberglass and filled with water (23±1° C.) at a height of 12 cm. A platform (11×11 cm) was placed at the end of the target arm and was submerged 1 cm below the surface. The acquisition phase allows to evaluate animals for left-right spatial learning. During the first two trials, platforms were placed on each arms of the maze to test the spontaneous turning preference of the mouse. After these two trials, the least chosen arm was reinforced by the escape platform. The mice were placed in the stem of the T-maze and choose to swim either left or right until they found the submerged platform and escape to it, to a maximum of 60 s. After reaching the platform, the mice remained on it for 20 s and then were immediately placed back in the maze. […] Repeated trials were presented on the same day up to a maximum of 48 trials. A rest period of at least 10-15 min intervened between each block of 10 trials. A mouse was considered to have learned the task when it made no errors in a block of five consecutive trials. The reversal learning phase was then conducted 48 h later. During this phase, the same protocol was repeated, except that the mice were trained to find the escape platform on the opposite side to that on which they had learned on acquisition phase. The number of trials to reach the criterion (five of five correct choices made on consecutive trials) was measured as well as the latency to find the escape platform.

[6] = tested on: Aβ plaques; assay: Aβ total plaque loading, stereological analysis of brain sections; type: in vivo, APPSwe/PS1 mice

## Pam3Cys—SQ EPAAPAAEAT PAAEAP (Pam3Cys-SQEPAAPAAEATPAAEAP) [Pam3CysLip peptide, TLR2 agonist, tri-palmitoylated peptide]
[1]; 5 ug per ml, pre-incubation 18 hrs
  phagocytosis: 86 % of cells
[1]; compared to PBS, Protollin 1 ug per ml, Pam3Cys lip peptide 5 ug per ml
  amyloid phagocytic activity: higher amyloid phagocytic activity

## QS21 [reference compound]
[2]
  Aβ uptake by peripheral blood monocytes: does not promote Aβ uptake
[3]; Example 19, single i.m. injection, 24 hrs
  activated Ly6C+ monocytes: 75%
[3]; Example 19, single i.m. injection, after 24 hrs, QS21 5 μg
  number of monocytes: 9.1 % of total peripheral white blood cells

## 3-O-desacyl-4′-monophosphoryl lipid A [3D MPL]
[4]; 2 h post injection
  levels of TNF-α and IL-6: modest increase
[4]; Example 28, 3D MPL i.p., AS01B i.m., data not shown
  innate cytokine profile: attenuated cytokine profile compared to LPS
[4]; Example 28, single intraperitoneal injection, 2 and 6 h
  most of the cytokine and chemokine levels: substantially lower than those of LPS-treated animals
[4]; after 6 h
  levels of TNF-α and IL-6: essentially abolished
[4]; single i.p. injection, in contrast to LPS
  IL-1β: not increased
[3]; Example 9, 5 ug/mouse, i.m.
  number of CD11b+ monocytes compared to the PBS control: about double
[3]; Example 10, single i.m. injection, at 5 and 25 ug/mouse dose
  monocyte numbers: stimulate monocyte numbers
[5]; ANOVA-2 tests, FIG. 27C
  T-water tests, combined data of Example 21 and 22: statistical significance
[5]
  behaviour as assessed by T water maze testing: significant improvements in behaviour
[5]; i.m. 12x weekly, CRX601 2 μg, CRX601 2 ug in AS03, 3D MPL 5 ug, AS01B 1/10 human dose, unpaired t-tests
  cognitive functions, T-water maze: significant improvement of their cognitive functions
[5]; intra peritoneal 50 ug per mouse, 12x weekly
  cognitive functions, T-water maze: significant improvement of their cognitive functions
[6]; ANOVA-2, P<0.01, intra peritoneal
  plaque loading, combined data of Example 21 and 22: statistical significant plaque loading reduction
[6]; Example 21, FIG. 26, immunofluorescence 6E10
  brain histology of amyloid plaques: more compacted plaques with less total area
[6]; Example 21, 50 μg/mouse i.p., once a week for 12 weeks
  Amyloid beta plaque number: statistically significant reduction in Amyloid beta plaque number
[6]; Example 22, FIG. 27B, intra peritoneal route
  Aβ amyloid plaque level in the brain: trend of reducing the Aβ amyloid plaque

## CCCCCCCCCCC[C@H](CC(=O)N[C@H]1[C@H](OC[C@H](NC(=O)C[C@@H](CCCCCCCCCCC)OC(=O)CCCCCCCCC)C(=O)O)O[C@H](CO)[C@@H](OP(=O)(O)O)[C@@H]1OC(=O)C[C@@H](CCCCCCCCCCC)OC(=O)CCCCCCCCC)OC(=O)CCCCCCCCC [CRX527]
[5]
  behaviour as assessed by T water maze testing: significant improvements in behaviour
